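Interpolation was linear, between the two tested concentrations surrounding the appropriate level; five concentrations were tested over 48 hours in 96-well plates. Definition used: TGI = concentration required for complete inhibition of growth.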
Columns and labels:
Assay in all cases: growth of human tumour cells (NCI), 48 h
HOP-62 NSCLC = tested on: HOP-62 NSCLC
HCT-15 colon = tested on: HCT-15 colon
HL-60(TB) leukemia = tested on: HL-60(TB) leukemia
NCI-H23 lung = tested on: NCI-H23 lung
M14 melanoma = tested on: M14 melanoma
KM12 colon = tested on: KM12 colon
SNB-75 CNS = tested on: SNB-75 CNS
CCRF-CEM leukemia = tested on: CCRF-CEM leukemia
UO-31 renal = tested on: UO-31 renal
HCC-2998 colon = tested on: HCC-2998 colon
SF-268 CNS = tested on: SF-268 CNS
UACC-62 melanoma = tested on: UACC-62 melanoma
HT29 colon = tested on: HT29 colon
OVCAR-8 ovarian = tested on: OVCAR-8 ovarian
COLO 205 colon = tested on: COLO 205 colon
SF-295 CNS = tested on: SF-295 CNS
LOX IMVI melanoma = tested on: LOX IMVI melanoma
OVCAR-3 ovarian = tested on: OVCAR-3 ovarian
SK-MEL-5 melanoma = tested on: SK-MEL-5 melanoma
SW-620 colon = tested on: SW-620 colon

Measured: TGI

OC12c3ccccc3C1CCCCCCCCCC21OCCCO1 (stereo not given)
> 100 µM: all assays above

COc1cccc(N2C(=O)CSC2c2c[nH]c3ccccc23)c1 (stereo not given)
> 100 µM: all assays above

CCOC(=O)c1csc(NC(=O)CN2CCCCC2)n1
> 100 µM: all assays above

Source: PubChem BioAssay (NCI)
